biological target: T1, GCase (Homo sapiens, UniProt P04062); assay: activation of GCase in a live cell PFB assay in HELA cells; type: cell-based; conditions: activation of GCase, EC50 ranges
T1 construct: endogenous in cells; host or cells: HeLa cells
T1 sequence (P04062 40-536): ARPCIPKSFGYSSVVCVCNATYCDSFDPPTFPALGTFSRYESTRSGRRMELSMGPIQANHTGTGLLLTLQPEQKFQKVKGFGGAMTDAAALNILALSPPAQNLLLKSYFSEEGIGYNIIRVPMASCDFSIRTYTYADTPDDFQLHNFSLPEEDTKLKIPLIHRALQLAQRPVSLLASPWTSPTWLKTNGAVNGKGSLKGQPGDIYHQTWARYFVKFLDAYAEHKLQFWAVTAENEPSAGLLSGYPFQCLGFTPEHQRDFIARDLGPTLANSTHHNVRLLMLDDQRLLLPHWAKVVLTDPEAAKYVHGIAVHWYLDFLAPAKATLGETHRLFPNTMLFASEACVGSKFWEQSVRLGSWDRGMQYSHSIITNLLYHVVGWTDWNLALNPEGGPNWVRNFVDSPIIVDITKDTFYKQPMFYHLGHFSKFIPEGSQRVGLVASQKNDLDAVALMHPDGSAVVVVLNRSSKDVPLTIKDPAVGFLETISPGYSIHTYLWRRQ
Protocol: Exemplary compounds were evaluated for activation of GCase in a live cell PFB assay in HELA cells (essentially as described in Ysselstein et al., “LRRK2 kinase activity regulates lysosomal glucocerebrosidase in neurons derived from Parkinson's disease patients” Nature Communications (2019) 10:5570). […] EC50 ranges: A: <10 μM; B: >10-50 μM; C: >50-100 μM; D: >100 μM.

| EC50 [µM] | SMILES |
| --- | --- |
| 10 to 50 | FC(F)Cn1ncc2ncc(N3CCC4(CCN(c5cc(C(F)(F)F)ccn5)CC4)C3)nc21 [Compound 16, 2-[1-(2,2-difluoroethyl)-1H-pyrazolo[3,4-b]pyrazin-6-yl]-8-[4-(trifluoromethyl)pyridin-2-yl]-2,8-diazaspiro[4.5]decane] |
| 10 to 50 | FC(F)Cn1ncc2ncc(N3CCCC4(C3)CN(c3cnccc3C(F)(F)F)C4)nc21 [Compound 17, 6-[1-(2,2-difluoroethyl)-1H-pyrazolo[3,4-b]pyrazin-6-yl]-2-[4-(trifluoromethyl)pyridin-3-yl]-2,6-diazaspiro[3.5]nonane] |
| 10 to 50 | FC(F)Cn1ncc2ncc(N3CCCC4(C3)CN(c3ncccc3C(F)(F)F)C4)nc21 [Compound 18, 6-[1-(2,2-difluoroethyl)-1H-pyrazolo[3,4-b]pyrazin-6-yl]-2-[3-(trifluoromethyl)pyridine-2-yl]-2,6-diazaspiro[3.5]nonane] |
| 10 to 50 | FC(F)Cn1ncc2ncc(N3CCCC4(CN(c5ccccc5)C4)C3)nc21 [Compound 19, 6-[1-(2,2-difluoroethyl)-1H-pyrazolo[3,4-b]pyrazin-6-yl]-2-phenyl-2,6-diazaspiro[3.5]nonane] |
| 10 to 50 | FC(F)Cn1ncc2ncc(N3CC4(CCCN(c5ccc(C(F)(F)F)nc5)C4)C3)nc21 [Compound 20, 2-[1-(2,2-difluoroethyl)-1H-pyrazolo[3,4-b]pyrazin-6-yl]-6-[6-(trifluoromethyl)pyridin-3-yl]-2,6-diazaspiro[3.5]nonane] |
| 10 to 50 | FC(F)Cn1ncc2ncc(N3CC4(CCCN(c5cc(C(F)(F)F)ccn5)C4)C3)nc21 [Compound 21, 2-[1-(2,2-difluoroethyl)-1H-pyrazolo[3,4-b]pyrazin-6-yl]-6-[4-(trifluoromethyl)pyridin-2-yl]-2,6-diazaspiro[3.5]nonane] |
| 10 to 50 | FC(F)Cn1ncc2ncc(N3CCCC4(CC(Oc5ccc(C(F)(F)F)nc5)C4)C3)nc21 (stereo not drawn) [Compound 22, 6-[1-(2,2-difluoroethyl)-1H-pyrazolo[3,4-b]pyrazin-6-yl]-2-{[6-(trifluoromethyl)pyridin-3-yl]oxy}-6-azaspiro[3.5]nonane] |
| 10 to 50 | FC(F)Cn1ncc2ncc(N3CCCC4(CN(c5cccc(C(F)(F)F)n5)C4)C3)nc21 [Compound 23, 6-[1-(2,2-difluoroethyl)-1H-pyrazolo[3,4-b]pyrazin-6-yl]-2-[6-(trifluoromethyl)pyridin-2-yl]-2,6-diazaspiro[3.5]nonane] |
| 10 to 50 | Fc1ccc(F)c(OC2CC3(CCCN(c4cnc5cnn(CC(F)F)c5n4)C3)C2)c1 (stereo not drawn) [Compound 24, 6-[1-(2,2-difluoroethyl)-1H-pyrazolo[3,4-b]pyrazin-6-yl]-2-(2,5-difluorophenoxy)-6-azaspiro[3.5]nonane] |
| 10 to 50 | FC(F)Cn1ncc2ncc(N3CC4(CCCN(c5cccc(C(F)(F)F)n5)C4)C3)nc21 [Compound 25, 2-[1-(2,2-difluoroethyl)-1H-pyrazolo[3,4-b]pyrazin-6-yl]-6-[6-(trifluoromethyl)pyridin-2-yl]-2,6-diazaspiro[3.5]nonane] |
| 10 to 50 | FC(F)Cn1ncc2ncc(N3CCCC4(C3)CN(c3cccnc3C(F)(F)F)C4)nc21 [Compound 26, 6-[1-(2,2-difluoroethyl)-1H-pyrazolo[3,4-b]pyrazin-6-yl]-2-[2-(trifluoromethyl)pyridin-3-yl]-2,6-diazaspiro[3.5]nonane] |
| 10 to 50 | FC(F)Cn1ncc2ncc(N3CCCC4(CC(Oc5cccc(C(F)(F)F)n5)C4)C3)nc21 (stereo not drawn) [Compound 27, 6-[1-(2,2-difluoroethyl)-1H-pyrazolo[3,4-b]pyrazin-6-yl]-2-{[6-(trifluoromethyl)pyridin-2-yl]oxy}-6-azaspiro[3.5]nonane] |
| 10 to 50 | FC(F)Cn1ncc2ncc(N3CCCC4(CC(Oc5ccc(C(F)(F)F)cn5)C4)C3)nc21 (stereo not drawn) [Compound 28, 6-[1-(2,2-difluoroethyl)-1H-pyrazolo[3,4-b]pyrazin-6-yl]-2-{[5-(trifluoromethyl)pyridin-2-yl]oxy}-6-azaspiro[3.5]nonane] |
| 10 to 50 | FC(F)Cn1ncc2ncc(N3CCCC4(CC(Oc5cc(C(F)(F)F)ccn5)C4)C3)nc21 (stereo not drawn) [Compound 29, 6-[1-(2,2-difluoroethyl)-1H-pyrazolo[3,4-b]pyrazin-6-yl]-2-{[4-(trifluoromethyl)pyridin-2-yl]oxy}-6-azaspiro[3.5]nonane] |
| 10 to 50 | Fc1ccc(F)c(OC2CC3(CCCN(c4cnc5cnn(CC(F)(F)F)c5n4)C3)C2)c1 (stereo not drawn) [Compound 30, 2-(2,5-difluorophenoxy)-6-[1-(2,2,2-trifluoroethyl)-1H-pyrazolo[3,4-b]pyrazin-6-yl]-6-azaspiro[3.5]nonane] |
| 10 to 50 | Fc1cc(F)cc(OC2CC3(CCCN(c4cnc5cnn(CC(F)F)c5n4)C3)C2)c1 (stereo not drawn) [Compound 31, 6-[1-(2,2-difluoroethyl)-1H-pyrazolo[3,4-b]pyrazin-6-yl]-2-(3,5-difluorophenoxy)-6-azaspiro[3.5]nonane] |
| 10 to 50 | FC(F)Cn1ncc2ncc(N3CCCC4(CC(Oc5ncccc5C(F)(F)F)C4)C3)nc21 (stereo not drawn) [Compound 32, 6-[1-(2,2-difluoroethyl)-1H-pyrazolo[3,4-b]pyrazin-6-yl]-2-{[3-(trifluoromethyl)pyridin-2-yl]oxy}-6-azaspiro[3.5]nonane] |
| 10 to 50 | Fc1cc(F)cc(OC2CC3(CCCN(c4cnc5cnn(CC(F)(F)F)c5n4)C3)C2)c1 (stereo not drawn) [Compound 33, 2-(3,5-difluorophenoxy)-6-[1-(2,2,2-trifluoroethyl)-1H-pyrazolo[3,4-b]pyrazin-6-yl]-6-azaspiro[3.5]nonane] |
| 10 to 50 | FC(F)Cn1ncc2ncc(N3CCCC4(CCN(c5cccc(C(F)(F)F)n5)C4)C3)nc21 (stereo not drawn) [Compound 34, 7-[1-(2,2-difluoroethyl)-1H-pyrazolo[3,4-b]pyrazin-6-yl]-2-[6-(trifluoromethyl)pyridin-2-yl]-2,7-diazaspiro[4.5]decane] |
| 10 to 50 | FC(F)Cn1ncc2ncc(N3CCCC4(C3)CN(c3ccncc3C(F)(F)F)C4)nc21 [Compound 35, 6-[1-(2,2-difluoroethyl)-1H-pyrazolo[3,4-b]pyrazin-6-yl]-2-[3-(trifluoromethyl)pyridin-4-yl]-2,6-diazaspiro[3.5]nonane] |
| 10 to 50 | FC(F)Cn1ncc2ncc(N3CCC4(CCCN(c5cccc(C(F)(F)F)n5)C4)C3)nc21 (stereo not drawn) [Compound 36, 2-[1-(2,2-difluoroethyl)-1H-pyrazolo[3,4-b]pyrazin-6-yl]-7-[6-(trifluoromethyl)pyridin-2-yl]-2,7-diazaspiro[4.5]decane] |
| 10 to 50 | FC(F)Cn1ncc2ncc(N3CCCC4(CN(c5ccc(C(F)(F)F)nc5)C4)C3)nc21 [Compound 37, 6-[1-(2,2-difluoroethyl)-1H-pyrazolo[3,4-b]pyrazin-6-yl]-2-[6-(trifluoromethyl)pyridin-3-yl]-2,6-diazaspiro[3.5]nonane] |
| 10 to 50 | FC(F)Cn1ncc2ncc(N3CCCC4(CN(c5cc(C(F)(F)F)ccn5)C4)C3)nc21 [Compound 38, 6-[1-(2,2-difluoroethyl)-1H-pyrazolo[3,4-b]pyrazin-6-yl]-2-[4-(trifluoromethyl)pyridin-2-yl]-2,6-diazaspiro[3.5]nonane] |
| 50 to 100 | FC(F)Cn1ncc2ncc(N3CC4(CCCN(c5ncccc5C(F)(F)F)C4)C3)nc21 [Compound 39, 2-[1-(2,2-difluoroethyl)-1H-pyrazolo[3,4-b]pyrazin-6-yl]-6-[3-(trifluoromethyl)pyridin-2-yl]-2,6-diazaspiro[3.5]nonane] |

Reference: patent US20250034170A1, “SMALL MOLECULE MODULATORS OF GLUCOCEREBROSIDASE ACTIVITY AND USES THEREOF” (Vanqua Bio, Inc., priority 2021, published 2025)
